What all share (type): biochemical
One assay addresses T1, Lck (Homo sapiens, UniProt P06239).
T1 construct: Kinases are expressed as either kinase domains or full length constructs; made in house
The experiment in a line: Kinase inhibition assay (33P transfer), Lck. Particulars: Table 3, class symbols; read-out: Lck-1. In short, it runs like this:
(§1)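 Each kinase, expressed as a GST- or polyHis-tagged domain or full-length protein, phosphorylated plate-attached poly(Glu,Tyr) 4:1 or poly(Arg,Ser) 3:1 using 33P-ATP. Bound radioactivity was measured by scintillation after a 0.5% phosphoric acid wash.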

Another assay deals with T2, Zap-70 (Homo sapiens, UniProt P43403).
T2 construct: Kinases are expressed as either kinase domains or full length constructs; made in house
T2 sequence (P43403 1-619): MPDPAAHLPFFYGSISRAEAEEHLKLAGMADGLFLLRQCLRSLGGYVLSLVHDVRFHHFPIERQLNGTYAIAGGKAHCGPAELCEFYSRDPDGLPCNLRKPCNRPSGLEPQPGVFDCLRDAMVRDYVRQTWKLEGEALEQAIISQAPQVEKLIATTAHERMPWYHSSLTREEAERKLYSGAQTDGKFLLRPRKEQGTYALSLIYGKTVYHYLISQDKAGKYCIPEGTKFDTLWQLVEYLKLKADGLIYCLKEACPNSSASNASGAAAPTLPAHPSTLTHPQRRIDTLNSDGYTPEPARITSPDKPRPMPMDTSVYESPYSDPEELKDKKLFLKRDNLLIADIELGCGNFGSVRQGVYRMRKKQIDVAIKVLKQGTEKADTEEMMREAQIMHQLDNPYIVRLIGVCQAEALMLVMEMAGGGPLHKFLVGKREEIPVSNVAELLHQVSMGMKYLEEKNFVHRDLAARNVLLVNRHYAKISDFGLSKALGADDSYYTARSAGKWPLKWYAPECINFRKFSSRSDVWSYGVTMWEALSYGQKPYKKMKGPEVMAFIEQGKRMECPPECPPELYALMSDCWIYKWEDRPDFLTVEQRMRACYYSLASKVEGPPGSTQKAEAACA
As to the kind of experiment: Kinase inhibition assay (33P transfer), Zap-70. The following applies: Table 3, class symbols; read-out: Zap-1. In short, it runs like this:
as §1

In the next assay the target is T3, Itk (Homo sapiens, UniProt Q08881).
T3 construct: Kinases are expressed as either kinase domains or full length constructs; made in house
T3 sequence (Q08881 1-620): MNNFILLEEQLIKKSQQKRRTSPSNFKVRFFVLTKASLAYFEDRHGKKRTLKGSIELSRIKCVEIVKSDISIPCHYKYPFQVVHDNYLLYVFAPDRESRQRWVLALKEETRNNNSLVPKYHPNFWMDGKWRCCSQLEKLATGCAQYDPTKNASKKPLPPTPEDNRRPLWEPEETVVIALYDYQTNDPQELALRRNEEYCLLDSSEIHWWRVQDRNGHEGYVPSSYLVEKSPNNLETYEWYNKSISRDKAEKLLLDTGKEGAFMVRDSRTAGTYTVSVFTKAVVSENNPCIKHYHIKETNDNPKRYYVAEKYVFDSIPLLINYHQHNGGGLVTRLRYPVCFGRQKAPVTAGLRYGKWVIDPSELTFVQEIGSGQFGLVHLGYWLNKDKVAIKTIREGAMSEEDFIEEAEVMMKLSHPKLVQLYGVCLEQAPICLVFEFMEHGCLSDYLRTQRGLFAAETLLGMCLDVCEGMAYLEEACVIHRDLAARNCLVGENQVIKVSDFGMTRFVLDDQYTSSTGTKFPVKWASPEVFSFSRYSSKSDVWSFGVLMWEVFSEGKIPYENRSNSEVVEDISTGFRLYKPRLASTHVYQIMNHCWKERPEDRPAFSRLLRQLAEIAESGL
The experiment in a line: Kinase inhibition assay (33P transfer), Itk. The following applies: Table 3, class symbols; read-out: Itk-1. The essentials:
(§2)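 Each enzyme, purified to near homogeneity by affinity chromatography, was incubated with ATP carrying 33P and a substrate polymer fixed to the plate. Unbound label was removed with dilute phosphoric acid (0.5%) before adding scintillant and counting. Potency is given as the compound level cutting label uptake by 50%.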

The target of another assay is T4, EGFR (Homo sapiens, UniProt P00533).
T4 construct: Kinases are expressed as either kinase domains or full length constructs; made in house
The experiment in a line: Kinase inhibition assay (33P transfer), EGFR. The following applies: Table 2, class symbols A-E; read-out: EGFR-1. The essentials:
as §2

Another assay deals with T5, ErbB2 (Homo sapiens, UniProt P04626).
T5 construct: Kinases are expressed as either kinase domains or full length constructs; made in house
As to the kind of experiment: Kinase inhibition assay (33P transfer), ErbB2. The following applies: read-out: ErbB2-2. In short, it runs like this: as §2

A further assay has as its target T6, Kdr (Homo sapiens, UniProt P35968).
T6 construct: Kinases are expressed as either kinase domains or full length constructs; made in house
As to the kind of experiment: Kinase inhibition assay (33P transfer), Kdr. Particulars: Table 3, class symbols; read-out: KDR-1. In short, it runs like this: as §1

In a further assay the target is T7, c-Met (Homo sapiens, UniProt P08581).
T7 construct: Kinases are expressed as either kinase domains or full length constructs; made in house
As to the kind of experiment: Kinase inhibition assay (33P transfer), c-Met. Particulars: Table 2, class symbols A-E; read-out: Met-1. In short, it runs like this:
as §2

Another assay has as its target T8, AKT (Homo sapiens, UniProt Q9Y243).
T8 construct: Kinases are expressed as either kinase domains or full length constructs; made in house
The experiment in a line: Kinase inhibition assay (33P transfer), AKT. The following applies: Table 2, class symbols A-E; read-out: AKT3-1. In short, it runs like this:
as §1

A further assay concerns the target T9, IGFR-1 (Homo sapiens, UniProt P08069).
T9 construct: Kinases are expressed as either kinase domains or full length constructs; made in house
As to the kind of experiment: Kinase inhibition assay (33P transfer), IGFR-1. Particulars: Table 2, class symbols A-E.

Another assay has as its target T10, PDGFRB (Homo sapiens, UniProt P09619).
T10 construct: Kinases are expressed as either kinase domains or full length constructs; made in house
As to the kind of experiment: Kinase inhibition assay (33P transfer), PDGFRB. Particulars: read-out: PDGFRB-1.

T4 sequence (P00533 25-1210, species assumed): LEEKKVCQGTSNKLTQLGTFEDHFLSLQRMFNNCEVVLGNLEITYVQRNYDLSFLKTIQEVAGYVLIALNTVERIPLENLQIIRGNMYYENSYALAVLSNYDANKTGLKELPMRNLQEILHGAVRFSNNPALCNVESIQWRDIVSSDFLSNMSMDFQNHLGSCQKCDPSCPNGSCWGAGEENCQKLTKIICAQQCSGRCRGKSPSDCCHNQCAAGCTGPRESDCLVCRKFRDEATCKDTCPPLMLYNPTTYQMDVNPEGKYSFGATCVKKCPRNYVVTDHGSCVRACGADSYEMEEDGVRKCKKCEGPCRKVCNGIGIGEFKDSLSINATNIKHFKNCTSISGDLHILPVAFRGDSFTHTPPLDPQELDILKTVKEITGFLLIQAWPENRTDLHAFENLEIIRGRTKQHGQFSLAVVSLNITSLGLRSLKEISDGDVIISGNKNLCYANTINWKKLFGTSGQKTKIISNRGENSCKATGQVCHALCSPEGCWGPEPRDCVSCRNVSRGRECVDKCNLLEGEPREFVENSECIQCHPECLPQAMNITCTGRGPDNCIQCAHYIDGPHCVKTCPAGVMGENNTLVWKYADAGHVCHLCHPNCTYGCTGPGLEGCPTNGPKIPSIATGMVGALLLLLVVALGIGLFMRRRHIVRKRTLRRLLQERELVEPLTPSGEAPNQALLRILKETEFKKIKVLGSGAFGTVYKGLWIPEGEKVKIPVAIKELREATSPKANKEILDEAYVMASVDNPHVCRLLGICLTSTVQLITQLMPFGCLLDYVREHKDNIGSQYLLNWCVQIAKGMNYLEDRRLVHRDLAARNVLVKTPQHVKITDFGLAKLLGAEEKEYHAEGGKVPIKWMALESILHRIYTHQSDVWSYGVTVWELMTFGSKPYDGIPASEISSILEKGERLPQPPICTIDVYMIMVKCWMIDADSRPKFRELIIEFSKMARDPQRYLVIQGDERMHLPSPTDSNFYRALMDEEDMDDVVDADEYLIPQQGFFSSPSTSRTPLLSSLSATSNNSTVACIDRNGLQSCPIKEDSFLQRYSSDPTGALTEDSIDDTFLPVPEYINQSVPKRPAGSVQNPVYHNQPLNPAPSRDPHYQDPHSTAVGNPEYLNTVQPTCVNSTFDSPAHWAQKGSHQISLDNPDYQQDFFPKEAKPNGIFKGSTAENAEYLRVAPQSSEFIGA
T8 sequence (Q9Y243 whole entry, the tested form may be a part): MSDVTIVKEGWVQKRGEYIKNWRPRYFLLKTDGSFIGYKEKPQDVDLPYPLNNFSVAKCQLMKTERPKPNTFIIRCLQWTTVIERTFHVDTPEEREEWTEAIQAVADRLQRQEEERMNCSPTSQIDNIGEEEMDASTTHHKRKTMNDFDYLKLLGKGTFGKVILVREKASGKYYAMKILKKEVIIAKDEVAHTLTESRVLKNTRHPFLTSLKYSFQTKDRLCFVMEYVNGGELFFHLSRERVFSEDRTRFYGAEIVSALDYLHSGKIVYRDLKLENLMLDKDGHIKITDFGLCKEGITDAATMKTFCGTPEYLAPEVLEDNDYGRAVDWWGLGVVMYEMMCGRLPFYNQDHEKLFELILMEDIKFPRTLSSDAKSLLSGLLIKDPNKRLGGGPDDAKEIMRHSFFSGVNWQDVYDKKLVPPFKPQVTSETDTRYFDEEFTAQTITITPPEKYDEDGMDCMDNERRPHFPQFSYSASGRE
T10 sequence (P09619 33-1106, species assumed): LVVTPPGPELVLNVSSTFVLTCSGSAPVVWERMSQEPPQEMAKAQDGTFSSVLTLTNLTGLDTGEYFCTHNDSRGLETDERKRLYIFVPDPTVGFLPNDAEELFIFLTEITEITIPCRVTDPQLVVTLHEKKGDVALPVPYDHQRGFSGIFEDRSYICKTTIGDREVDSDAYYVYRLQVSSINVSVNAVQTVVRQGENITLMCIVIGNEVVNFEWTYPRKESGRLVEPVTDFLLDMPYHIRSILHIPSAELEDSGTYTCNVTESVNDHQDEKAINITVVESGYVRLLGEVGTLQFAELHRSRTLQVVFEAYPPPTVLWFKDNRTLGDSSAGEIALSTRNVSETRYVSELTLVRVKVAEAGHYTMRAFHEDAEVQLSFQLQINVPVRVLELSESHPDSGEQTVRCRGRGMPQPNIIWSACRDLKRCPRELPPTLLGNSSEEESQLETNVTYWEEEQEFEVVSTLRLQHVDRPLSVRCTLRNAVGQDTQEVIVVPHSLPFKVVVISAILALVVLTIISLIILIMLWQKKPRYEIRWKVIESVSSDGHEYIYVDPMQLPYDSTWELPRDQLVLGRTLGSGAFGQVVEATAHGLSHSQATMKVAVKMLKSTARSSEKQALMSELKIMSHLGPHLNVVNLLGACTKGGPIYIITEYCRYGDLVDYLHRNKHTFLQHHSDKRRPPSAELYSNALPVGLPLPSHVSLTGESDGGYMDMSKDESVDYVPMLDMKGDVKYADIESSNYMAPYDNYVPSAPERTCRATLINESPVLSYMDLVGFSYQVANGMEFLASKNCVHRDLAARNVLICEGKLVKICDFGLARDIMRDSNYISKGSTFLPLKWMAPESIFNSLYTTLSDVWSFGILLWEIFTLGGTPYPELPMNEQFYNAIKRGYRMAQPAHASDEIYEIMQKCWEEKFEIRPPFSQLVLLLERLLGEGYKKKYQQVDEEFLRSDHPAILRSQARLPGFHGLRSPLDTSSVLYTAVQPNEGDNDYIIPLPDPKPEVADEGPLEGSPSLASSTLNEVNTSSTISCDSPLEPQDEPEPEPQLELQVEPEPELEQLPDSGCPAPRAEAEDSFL
T1 sequence (P06239 whole entry, species assumed, the tested form may be a part): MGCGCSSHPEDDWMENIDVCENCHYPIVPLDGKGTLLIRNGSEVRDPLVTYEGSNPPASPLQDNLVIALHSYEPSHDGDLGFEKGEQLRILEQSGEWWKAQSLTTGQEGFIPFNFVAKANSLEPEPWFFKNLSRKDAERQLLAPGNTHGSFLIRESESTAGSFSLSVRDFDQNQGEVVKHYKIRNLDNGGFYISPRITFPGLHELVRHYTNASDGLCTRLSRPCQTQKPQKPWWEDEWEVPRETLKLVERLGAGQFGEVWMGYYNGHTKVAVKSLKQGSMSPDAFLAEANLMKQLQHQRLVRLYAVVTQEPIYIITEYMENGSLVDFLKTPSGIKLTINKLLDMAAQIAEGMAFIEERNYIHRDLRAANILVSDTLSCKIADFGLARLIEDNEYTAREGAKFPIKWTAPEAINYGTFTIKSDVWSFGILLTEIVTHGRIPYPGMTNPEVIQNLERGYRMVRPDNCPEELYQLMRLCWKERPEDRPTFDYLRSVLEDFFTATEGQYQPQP
T5 sequence (P04626 23-1255, species assumed): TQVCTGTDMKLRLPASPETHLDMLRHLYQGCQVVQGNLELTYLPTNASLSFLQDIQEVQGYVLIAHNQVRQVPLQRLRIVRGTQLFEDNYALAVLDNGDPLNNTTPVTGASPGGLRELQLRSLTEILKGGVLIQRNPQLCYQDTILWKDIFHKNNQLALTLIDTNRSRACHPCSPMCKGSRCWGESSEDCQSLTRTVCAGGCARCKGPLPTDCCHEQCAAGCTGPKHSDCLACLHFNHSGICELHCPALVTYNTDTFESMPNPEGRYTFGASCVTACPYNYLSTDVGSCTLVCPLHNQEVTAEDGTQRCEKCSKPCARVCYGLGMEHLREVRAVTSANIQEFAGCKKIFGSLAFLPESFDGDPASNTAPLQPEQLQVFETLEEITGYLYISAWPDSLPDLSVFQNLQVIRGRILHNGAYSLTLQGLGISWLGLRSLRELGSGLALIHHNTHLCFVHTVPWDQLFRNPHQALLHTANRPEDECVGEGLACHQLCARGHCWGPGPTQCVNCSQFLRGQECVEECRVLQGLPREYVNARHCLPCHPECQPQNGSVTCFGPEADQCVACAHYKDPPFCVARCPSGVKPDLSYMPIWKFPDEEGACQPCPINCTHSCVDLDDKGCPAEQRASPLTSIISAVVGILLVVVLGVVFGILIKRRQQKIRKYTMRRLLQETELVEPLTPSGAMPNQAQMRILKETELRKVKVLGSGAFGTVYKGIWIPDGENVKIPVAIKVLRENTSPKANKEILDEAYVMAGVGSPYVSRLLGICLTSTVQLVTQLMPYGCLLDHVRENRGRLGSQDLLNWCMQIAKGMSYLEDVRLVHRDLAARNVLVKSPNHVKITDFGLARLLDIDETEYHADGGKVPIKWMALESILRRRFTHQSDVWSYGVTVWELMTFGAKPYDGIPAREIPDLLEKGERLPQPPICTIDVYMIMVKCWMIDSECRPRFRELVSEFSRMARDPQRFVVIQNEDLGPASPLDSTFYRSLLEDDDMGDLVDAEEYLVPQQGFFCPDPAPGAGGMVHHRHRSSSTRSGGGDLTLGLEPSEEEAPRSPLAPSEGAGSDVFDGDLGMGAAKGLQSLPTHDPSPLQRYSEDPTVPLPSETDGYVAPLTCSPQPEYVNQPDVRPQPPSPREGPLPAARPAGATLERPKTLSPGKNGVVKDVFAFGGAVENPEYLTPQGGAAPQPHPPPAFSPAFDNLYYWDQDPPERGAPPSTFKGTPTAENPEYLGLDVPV

Regarding `COc1cc(Nc2ncnc(-c3cccnc3Nc3cccc4c3CCCC4)n2)cc(OC)c1OC` [Compound 841], the IC50 on Lck, at Zap-70, on Itk, on EGFR, at ErbB2 and at Kdr was greater than 9.29 µM each time. In addition, the IC50 at c-Met, on AKT, against IGFR-1 and at PDGFRB was greater than 9.29 µM throughout.
In the case of `COc1cc(Nc2ncnc(-c3cccnc3NCc3ccccc3OC(F)(F)F)n2)cc(OC)c1OC` [Compound 842], the IC50 at Lck was greater than 8.51 µM; on Zap-70, 6.62 to 8.51 µM; on Itk, greater than 8.51 µM; on EGFR it was greater than 8.51 µM; at ErbB2, 6.62 to 8.51 µM; at Kdr it was 0.757 to 4.54 µM. Besides, the IC50 on c-Met is 6.62 to 8.51 µM; at AKT, greater than 8.51 µM; against IGFR-1 it was greater than 8.51 µM; at PDGFRB it was 4.54 to 6.62 µM.
On to `COc1cc(Nc2ncnc(-c3cccnc3NC(C)c3ccccc3)n2)cc(OC)c1OC` (centres unmarked) [Compound 843], for which the IC50 at Lck is less than 0.872 µM; on Zap-70, greater than 9.81 µM; on Itk it was greater than 9.81 µM; at EGFR, greater than 9.81 µM; at ErbB2, 7.63 to 9.81 µM; on Kdr, less than 0.872 µM. Further, the IC50 is greater than 9.81 µM on c-Met, greater than 9.81 µM at AKT, greater than 9.81 µM against IGFR-1 and less than 0.872 µM on PDGFRB.
In the case of `COc1cc(Nc2ncnc(-c3cccnc3NCc3cccc4ccccc34)n2)cc(OC)c1OC` [Compound 844], the IC50 at Lck was greater than 9.1 µM; on Zap-70, greater than 9.1 µM; at Itk it was greater than 9.1 µM; at EGFR, greater than 9.1 µM; on ErbB2, 0.809 to 4.85 µM; at Kdr, less than 0.809 µM. Besides, the IC50 is greater than 9.1 µM on c-Met, greater than 9.1 µM at AKT, 4.85 to 7.08 µM against IGFR-1 and 0.809 to 4.85 µM at PDGFRB.
`COc1cc(Nc2ncnc(-c3cccnc3NC(C)c3cccc4ccccc34)n2)cc(OC)c1OC` (centres unmarked) [Compound 845]: the IC50 on Lck is 0.787 to 4.72 µM; at Zap-70, greater than 8.85 µM; on Itk, greater than 8.85 µM; at EGFR, greater than 8.85 µM; on ErbB2, 4.72 to 6.88 µM; on Kdr, less than 0.787 µM. Also, the IC50 was greater than 8.85 µM on c-Met, 0.787 to 4.72 µM on AKT, greater than 8.85 µM against IGFR-1 and 0.787 to 4.72 µM at PDGFRB.
Regarding `COc1cc(Nc2ncnc(-c3cccnc3NC3CCc4ccccc43)n2)cc(OC)c1OC` (centres unmarked) [Compound 846], the IC50 on Lck was 0.85 to 5.1 µM; on Zap-70 it was greater than 9.56 µM; at Itk, greater than 9.56 µM; at EGFR, 5.1 to 7.44 µM; on ErbB2 it was 5.1 to 7.44 µM; at Kdr, 0.85 to 5.1 µM. The IC50 at c-Met is greater than 9.56 µM; at AKT it was greater than 9.56 µM; against IGFR-1 it was greater than 9.56 µM; on PDGFRB, 0.85 to 5.1 µM.
Turning to `COc1cc(Nc2ncnc(-c3cccnc3NC3CCN(Cc4ccccc4)CC3)n2)cc(OC)c1OC` [Compound 847], the IC50 at Lck, at Zap-70, on Itk, at EGFR, at ErbB2 and on Kdr was greater than 8.53 µM each time. Also, the IC50 on c-Met, on AKT, on IGFR-1 and at PDGFRB was greater than 8.53 µM in each case.
Take `COc1cc(Nc2ncnc(-c3cccnc3NC3CCCCC3)n2)cc(OC)c1OC` [Compound 848]: the IC50 on Lck is 8.02 to 10.3 µM; on Zap-70, greater than 10.3 µM; on Itk it was greater than 10.3 µM; on EGFR, greater than 10.3 µM; on ErbB2, greater than 10.3 µM; at Kdr it was less than 0.916 µM. The IC50 was greater than 10.3 µM on c-Met, greater than 10.3 µM at AKT, greater than 10.3 µM at IGFR-1 and less than 0.916 µM on PDGFRB.
For the compound `COc1ccc(Nc2ncnc(N(C)CC(O)c3ccccc3)n2)cc1OC` (centres unmarked) [Compound 868], the IC50 was greater than 11.8 µM at Lck; greater than 11.8 µM at Zap-70; 1.05 to 6.29 µM at Itk; 1.05 to 6.29 µM at EGFR; greater than 11.8 µM on ErbB2; greater than 11.8 µM on Kdr. For the same compound, the IC50 on c-Met was greater than 11.8 µM; on AKT, greater than 11.8 µM; at IGFR-1, greater than 11.8 µM; on PDGFRB, 1.05 to 6.29 µM.
With `COc1ccc(Nc2ncnc(N(C)CCc3ccccn3)n2)cc1OC` [Compound 869], the IC50 on Lck is greater than 12.3 µM; on Zap-70, greater than 12.3 µM; on Itk, 6.55 to 9.55 µM; at EGFR, 1.09 to 6.55 µM; at ErbB2 it was 9.55 to 12.3 µM; at Kdr it was 9.55 to 12.3 µM. Moreover, the IC50 on c-Met was 9.55 to 12.3 µM; on AKT it was greater than 12.3 µM; on IGFR-1, greater than 12.3 µM; on PDGFRB, 1.09 to 6.55 µM.
As to `CCN(CC)CCN(C)c1ncnc(Nc2ccc(OC)c(OC)c2)n1` [Compound 870], the IC50 at Lck, at Zap-70, at Itk, on EGFR, on ErbB2 and on Kdr was greater than 12.5 µM in each case. The IC50 at c-Met, on AKT, at IGFR-1 and on PDGFRB was greater than 12.5 µM in each case.
Turning to `c1ccc(Cn2ncc3cc(Nc4ncnc(NCCN5CCCC5)n4)ccc32)cc1` [Compound 871], the IC50 was greater than 10.9 µM on Lck; greater than 10.9 µM at Zap-70; 5.79 to 8.44 µM at Itk; greater than 10.9 µM at EGFR; greater than 10.9 µM on ErbB2; greater than 10.9 µM at Kdr. Besides, the IC50 on c-Met was greater than 10.9 µM; on AKT it was greater than 10.9 µM; on IGFR-1, greater than 10.9 µM; at PDGFRB it was 8.44 to 10.9 µM.
On to `Clc1cc(Nc2ncnc(Nc3ccc4c(cnn4Cc4ccccc4)c3)n2)cc(Cl)c1Cl` [Compound 872], for which the IC50 at Lck is greater than 9.06 µM; at Zap-70, greater than 9.06 µM; at Itk, 0.805 to 4.83 µM; at EGFR, 0.805 to 4.83 µM; at ErbB2, 0.805 to 4.83 µM; at Kdr, 0.805 to 4.83 µM. For the same compound, the IC50 on c-Met, at AKT, against IGFR-1 and at PDGFRB was 0.805 to 4.83 µM throughout.
As for `COc1cccc(CCNc2ncnc(Nc3ccc4c(cnn4Cc4ccccc4)c3)n2)c1OC` [Compound 873], the IC50 at Lck, at Zap-70, at Itk, at EGFR, at ErbB2 and at Kdr was greater than 9.34 µM each time. For the same compound, the IC50 on c-Met, at AKT, against IGFR-1 and at PDGFRB was greater than 9.34 µM each time.

The values are drawn from patent US7074789B2, “Kinase inhibitors” (Amgen Inc., priority 1999, dated 2006).
